Values quoted from earlier work in patent EP0324210A1 (UOP, priority 1988, dated 1989).

Details: aqueous solution, 25°C

- acid dissociation constant pKa₃: 5.40
SMILES: O=C(O)CC(O)(CC(=O)O)C(=O)O [citric acid]
